From article PMC11766267 (International Journal of Molecular Sciences, 2025)
Values joined by “and” are separate entries in the source; they are usually repeats but may differ in a detail not shown here. Equal values may be shown once. Read-outs that look alike come from different tables or passages of the source.

Key:
HCT-116 = experiment: MTT cytotoxicity assay, HCT-116; type: cell-based; conditions: Homo sapiens, 24 h treatment, mean ± SD of triplicate
Method in brief: (§1)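 After MTT treatment, DMSO is added to dissolve the insoluble formazan, which serves as the viability signal.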

MDA-MB-231 = experiment: MTT cytotoxicity assay, MDA-MB-231; type: cell-based; conditions: Homo sapiens, 24 h treatment, mean ± SD of triplicate
Method in brief: as §1

HeLa = experiment: MTT cytotoxicity assay, HeLa; type: cell-based; conditions: Homo sapiens, 24 h treatment, mean ± SD of triplicate
Method in brief: as §1

MCF-7 [1] = experiment: MTT cytotoxicity assay, MCF-7; type: cell-based, human; conditions: Homo sapiens, MCF7, 24 h, 24 h treatment, mean ± SD of triplicate
Method in brief: as §1

[2] = MTT cytotoxicity assay, normal cell line WI-38; type: cell-based, human; conditions: human, WI-38 cells (normal human lung fibroblasts), normal (non-cancer) cell line, 24 h treatment
Method in brief: as §1

[3] = tested on: HCT-116, MDA-MB-231, HeLa, and MCF-7; experiment: MTT cytotoxicity assay, ranges stated over several cell lines; type: cell-based; conditions: Homo sapiens, range over the compounds named
Method in brief: as §1

[4] = molecular target: T1, aromatase (CYP19A, EC 1.14.14.14) (Homo sapiens, UniProt P11511); experiment: biochemical
T1 construct: Microsomal samples were isolated from tissue using the Microsome Isolation Kit; tissue BioVision K983-100; host or cells: microsomes from an unnamed tissue
T1 sequence (P11511 1-503): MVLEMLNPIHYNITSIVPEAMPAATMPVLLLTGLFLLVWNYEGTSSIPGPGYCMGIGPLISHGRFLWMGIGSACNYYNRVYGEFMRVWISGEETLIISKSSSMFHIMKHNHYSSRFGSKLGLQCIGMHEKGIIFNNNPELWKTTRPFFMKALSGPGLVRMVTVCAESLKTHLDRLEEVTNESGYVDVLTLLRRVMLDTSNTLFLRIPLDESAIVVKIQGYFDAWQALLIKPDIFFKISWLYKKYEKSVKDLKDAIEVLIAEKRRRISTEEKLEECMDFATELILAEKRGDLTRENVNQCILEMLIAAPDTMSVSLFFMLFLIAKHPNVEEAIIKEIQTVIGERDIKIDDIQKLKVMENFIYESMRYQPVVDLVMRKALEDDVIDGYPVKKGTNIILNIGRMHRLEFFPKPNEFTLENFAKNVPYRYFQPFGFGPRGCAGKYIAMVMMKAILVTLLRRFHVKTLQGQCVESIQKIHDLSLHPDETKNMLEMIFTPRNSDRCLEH
Description: In vitro aromatase assay was performed using the BioVision Aromatase Activity Assay Kit (Catalog # K983-100; BioVision, Milpitas, CA, USA). Microsomal samples were isolated from tissue using the Microsome Isolation Kit (Cat. #K249; BioVision, Milpitas, CA, USA). A standard curve was established by diluting the Fluorescence Standard provided in the kit to create a 0.5 pmole/µL solution, followed by setting up a series of standards in a white 96-well plate, adjusting the total volume to 100 µL with aromatase assay buffer. For each reaction well, a 2X concentrated mix was prepared by adding 2–48 µL of the microsomal sample and 2 µL of the NADPH generating system, bringing the final volume to 50 µL with aromatase assay buffer. Background controls (no enzyme) and positive controls (with recombinant aromatase) were included. […] After a 10 min incubation at 37 °C, 30 µL of the substrate/NADP+ mixture was added to each well, and fluorescence was measured immediately in kinetic mode for 60 min at 37 °C. Finally, the change in fluorescence was calculated to determine the specific activity of aromatase using the formula provided in the kit protocol.

MCF-7 [5] = experiment: In vitro anti-estrogenic activity assay, MCF-7
MCF-7a = experiment: In vitro anti-estrogenic activity assay, MCF-7a
EGFR = EGFR (Homo sapiens, UniProt P00533); experiment: In vitro protein kinase inhibition assay (ELISA kit), EGFR
Chain of EGFR (P00533 25-1210): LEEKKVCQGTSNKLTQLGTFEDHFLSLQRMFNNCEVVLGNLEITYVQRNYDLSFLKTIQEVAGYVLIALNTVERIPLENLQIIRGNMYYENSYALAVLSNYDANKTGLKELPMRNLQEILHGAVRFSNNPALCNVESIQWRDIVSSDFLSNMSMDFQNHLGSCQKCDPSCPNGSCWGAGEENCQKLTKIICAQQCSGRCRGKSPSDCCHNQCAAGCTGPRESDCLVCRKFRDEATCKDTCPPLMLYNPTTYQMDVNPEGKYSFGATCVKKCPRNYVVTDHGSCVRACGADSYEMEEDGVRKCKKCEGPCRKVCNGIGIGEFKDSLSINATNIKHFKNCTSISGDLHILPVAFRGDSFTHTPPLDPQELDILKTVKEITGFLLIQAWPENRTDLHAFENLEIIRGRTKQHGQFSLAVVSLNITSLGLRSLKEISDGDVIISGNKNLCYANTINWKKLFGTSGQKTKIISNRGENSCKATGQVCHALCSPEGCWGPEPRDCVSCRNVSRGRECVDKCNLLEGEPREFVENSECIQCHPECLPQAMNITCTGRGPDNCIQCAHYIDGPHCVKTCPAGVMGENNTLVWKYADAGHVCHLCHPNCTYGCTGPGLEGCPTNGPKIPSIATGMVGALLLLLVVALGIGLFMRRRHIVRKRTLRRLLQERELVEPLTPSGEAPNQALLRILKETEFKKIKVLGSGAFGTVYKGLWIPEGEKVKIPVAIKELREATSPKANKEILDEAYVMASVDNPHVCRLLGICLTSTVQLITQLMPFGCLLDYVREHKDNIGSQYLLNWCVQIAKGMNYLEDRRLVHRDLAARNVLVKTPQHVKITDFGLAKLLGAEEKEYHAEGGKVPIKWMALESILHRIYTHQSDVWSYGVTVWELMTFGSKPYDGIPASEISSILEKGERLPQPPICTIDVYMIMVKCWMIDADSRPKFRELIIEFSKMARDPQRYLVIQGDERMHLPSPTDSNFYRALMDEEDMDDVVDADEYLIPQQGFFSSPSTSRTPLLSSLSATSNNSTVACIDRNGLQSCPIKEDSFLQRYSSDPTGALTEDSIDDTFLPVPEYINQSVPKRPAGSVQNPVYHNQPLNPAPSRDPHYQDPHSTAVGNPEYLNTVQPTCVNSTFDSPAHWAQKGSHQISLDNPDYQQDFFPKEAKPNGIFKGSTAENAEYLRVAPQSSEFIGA

HER2 = HER2 (Homo sapiens, UniProt P04626); experiment: In vitro protein kinase inhibition assay (ELISA kit), HER2
Chain of HER2 (P04626 23-1255): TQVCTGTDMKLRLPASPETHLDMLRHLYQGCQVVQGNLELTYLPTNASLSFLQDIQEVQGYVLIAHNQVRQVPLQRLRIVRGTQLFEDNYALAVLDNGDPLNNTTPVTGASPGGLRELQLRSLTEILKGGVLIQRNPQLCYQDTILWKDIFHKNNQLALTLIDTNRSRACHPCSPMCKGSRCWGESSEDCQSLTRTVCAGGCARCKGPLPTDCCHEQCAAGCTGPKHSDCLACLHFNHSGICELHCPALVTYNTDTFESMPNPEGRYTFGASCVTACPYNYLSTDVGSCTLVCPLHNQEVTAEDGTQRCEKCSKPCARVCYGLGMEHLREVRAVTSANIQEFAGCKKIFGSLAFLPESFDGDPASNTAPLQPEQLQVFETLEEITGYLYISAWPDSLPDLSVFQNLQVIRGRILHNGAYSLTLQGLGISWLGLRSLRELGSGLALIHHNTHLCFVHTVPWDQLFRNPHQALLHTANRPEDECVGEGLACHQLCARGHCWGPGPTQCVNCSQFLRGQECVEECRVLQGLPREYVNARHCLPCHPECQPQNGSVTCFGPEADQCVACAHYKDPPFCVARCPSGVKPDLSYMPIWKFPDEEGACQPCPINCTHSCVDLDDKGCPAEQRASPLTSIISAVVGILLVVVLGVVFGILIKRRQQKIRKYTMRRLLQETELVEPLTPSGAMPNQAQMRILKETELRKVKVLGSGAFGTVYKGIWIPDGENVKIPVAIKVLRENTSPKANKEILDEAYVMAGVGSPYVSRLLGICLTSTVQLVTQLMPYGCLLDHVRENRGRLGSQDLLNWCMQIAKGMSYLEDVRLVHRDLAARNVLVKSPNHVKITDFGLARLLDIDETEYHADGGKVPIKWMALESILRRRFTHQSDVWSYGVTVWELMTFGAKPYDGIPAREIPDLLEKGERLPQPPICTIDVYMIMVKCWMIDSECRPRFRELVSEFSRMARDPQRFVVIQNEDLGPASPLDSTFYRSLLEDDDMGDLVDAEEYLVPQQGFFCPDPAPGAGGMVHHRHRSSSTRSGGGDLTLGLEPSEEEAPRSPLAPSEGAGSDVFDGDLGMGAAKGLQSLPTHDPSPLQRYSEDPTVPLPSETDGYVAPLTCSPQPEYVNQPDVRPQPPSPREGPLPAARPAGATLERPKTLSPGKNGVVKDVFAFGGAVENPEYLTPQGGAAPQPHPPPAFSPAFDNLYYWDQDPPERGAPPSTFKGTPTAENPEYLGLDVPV

CDK2 = CDK2 (Homo sapiens, UniProt P24941); experiment: In vitro protein kinase inhibition assay (ELISA kit), CDK2
VEGFR-2 = VEGFR-2 (Homo sapiens, UniProt P35968); experiment: In vitro protein kinase inhibition assay (ELISA kit), VEGFR-2
Chain of VEGFR-2 (P35968 20-1356): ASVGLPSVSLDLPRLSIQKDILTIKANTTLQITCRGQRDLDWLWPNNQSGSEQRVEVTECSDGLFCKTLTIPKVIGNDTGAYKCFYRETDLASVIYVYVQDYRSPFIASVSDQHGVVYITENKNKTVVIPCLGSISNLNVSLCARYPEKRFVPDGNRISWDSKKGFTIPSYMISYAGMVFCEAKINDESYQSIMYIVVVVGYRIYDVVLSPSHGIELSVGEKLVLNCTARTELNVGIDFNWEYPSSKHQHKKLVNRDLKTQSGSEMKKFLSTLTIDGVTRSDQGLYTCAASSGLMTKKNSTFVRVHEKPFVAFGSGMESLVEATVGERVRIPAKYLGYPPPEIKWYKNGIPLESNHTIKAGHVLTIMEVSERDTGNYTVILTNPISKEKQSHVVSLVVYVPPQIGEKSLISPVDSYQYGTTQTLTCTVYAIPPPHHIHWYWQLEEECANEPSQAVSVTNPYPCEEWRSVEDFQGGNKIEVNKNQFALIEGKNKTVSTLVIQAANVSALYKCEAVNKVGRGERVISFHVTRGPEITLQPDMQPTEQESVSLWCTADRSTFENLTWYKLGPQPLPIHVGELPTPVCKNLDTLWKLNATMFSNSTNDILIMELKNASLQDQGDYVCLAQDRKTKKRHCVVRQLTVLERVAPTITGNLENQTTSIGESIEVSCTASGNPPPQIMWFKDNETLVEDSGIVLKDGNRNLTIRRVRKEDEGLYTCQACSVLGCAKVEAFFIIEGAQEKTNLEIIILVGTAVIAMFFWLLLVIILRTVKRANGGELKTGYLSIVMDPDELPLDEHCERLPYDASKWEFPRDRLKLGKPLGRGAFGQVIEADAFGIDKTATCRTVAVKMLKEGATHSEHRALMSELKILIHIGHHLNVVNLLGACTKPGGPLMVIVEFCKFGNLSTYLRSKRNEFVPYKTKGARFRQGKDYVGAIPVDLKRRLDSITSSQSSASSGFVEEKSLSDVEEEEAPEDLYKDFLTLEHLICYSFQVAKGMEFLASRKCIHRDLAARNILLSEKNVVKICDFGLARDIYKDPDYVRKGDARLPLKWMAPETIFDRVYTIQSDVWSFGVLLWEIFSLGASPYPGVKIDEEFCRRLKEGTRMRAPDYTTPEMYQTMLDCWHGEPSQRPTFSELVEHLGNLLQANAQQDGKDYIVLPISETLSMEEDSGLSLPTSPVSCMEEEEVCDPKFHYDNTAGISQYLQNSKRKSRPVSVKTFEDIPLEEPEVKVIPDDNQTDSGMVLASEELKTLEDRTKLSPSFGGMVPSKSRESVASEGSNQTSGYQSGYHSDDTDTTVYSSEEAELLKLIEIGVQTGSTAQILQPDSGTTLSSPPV

[6] = cell count relative to the control (17β-E2)

COc1cccc(C(=O)/C=C/c2ccc(OCc3ccccc3)cc2)c1 [Compound 4q, (E)-3-(4-(Benzyloxy)phenyl)-1-(3-methoxyphenyl)prop-2-en-1-one]
IC50 (HCT-116): 17.1 ± 1.3 µM
IC50 (MDA-MB-231): 13.6 ± 1.1 µM
IC50 (HeLa): 22.6 ± 1.7 µM
IC50 (MCF-7 [1]): 11.6 ± 0.9 µM
IC50 at 24 h [2]: > 100 µM
IC50 ([3]; HCT-116 and HeLa, read-out: IC50 values, range against HCT-116 and HeLa): 6.59 to 22.6 µM
IC50 ([3]; MDA-MB-231 and MCF-7, read-out: IC50 values, range against MDA-MB-231 and MCF-7): 2.08 to 13.6 µM
Inhibition (%) Aromatase ([4]; 0.01 µM, individual Data 1-3): 6.6% and 8.9%
Inhibition (%) Aromatase ([4]; 0.1 µM, individual Data 1-3): 17.9% and 20.7%
Inhibition (%) Aromatase ([4]; 1 µM, individual Data 1-3): 54% and 53.8%
Inhibition (%) Aromatase ([4]; 10 µM, individual Data 1-3): 81.5% and 83.9%
Inhibition (%) Aromatase ([4]; 100 µM, individual Data 1-3): 91.6% and 93.8%
IC50 ([4]; mean ± SD of triplicate, approximate values, read-out: Aromatase Inhibition IC50): 0.901 µM and 0.801 µM
inhibition at 0.01 µM ([4]; read-out: Inhibition (%) Aromatase, 0.01 µM, individual Data 1-3): 7.8%
inhibition at 0.1 µM ([4]; read-out: Inhibition (%) Aromatase, 0.1 µM, individual Data 1-3): 19%
inhibition at 1 µM ([4]; read-out: Inhibition (%) Aromatase, 1 µM, individual Data 1-3): 55.9%
inhibition at 10 µM ([4]; read-out: Inhibition (%) Aromatase, 10 µM, individual Data 1-3): 82%
inhibition at 100 µM ([4]; read-out: Inhibition (%) Aromatase, 100 µM, individual Data 1-3): 92%
Cell Proliferation MCF-7 % (MCF-7 [5]; [6]): 37%
Cell Proliferation MCF-7 Cell Count (MCF-7 [5]; mean ± SD of triplicate): 6874 ± 245
Reduction of growth/cell count (inhibition) in MCF-7 (MCF-7 [5]; relative to control): 63%
Cell Proliferation MCF-7a % (MCF-7a; [6]): 99%
Cell Proliferation MCF-7a Cell Count (MCF-7a; mean ± SD of triplicate): 20,630 ± 595
Inhibition in MCF-7a (MCF-7a; relative to control): 1%
IC50 (EGFR): 0.151 ± 0.005 µM
Inhibition (%) EGFR (EGFR; 0.01 µM, individual Data 1-3): 22.9% and 24.2%
Inhibition (%) EGFR (EGFR; 0.1 µM, individual Data 1-3): 45.2% and 47.5%
Inhibition (%) EGFR (EGFR; 1 µM, individual Data 1-3): 71.9% and 70.2%
Inhibition (%) EGFR (EGFR; 10 µM, individual Data 1-3): 86.9% and 90%
Inhibition (%) EGFR (EGFR; 100 µM, individual Data 1-3): 95.6% and 97.9%
inhibition at 0.01 µM (EGFR; read-out: Inhibition (%) EGFR, 0.01 µM, individual Data 1-3): 23.4%
inhibition at 0.1 µM (EGFR; read-out: Inhibition (%) EGFR, 0.1 µM, individual Data 1-3): 46.8%
inhibition at 1 µM (EGFR; read-out: Inhibition (%) EGFR, 1 µM, individual Data 1-3): 72%
inhibition at 10 µM (EGFR; read-out: Inhibition (%) EGFR, 10 µM, individual Data 1-3): 88.4%
inhibition at 100 µM (EGFR; read-out: Inhibition (%) EGFR, 100 µM, individual Data 1-3): 96.3%
IC50 (HER2): ~0.144 µM
Inhibition (%) Her2 (HER2; 0.01 µM, individual Data 1-3): 25% and 25.9%
Inhibition (%) Her2 (HER2; 0.1 µM, individual Data 1-3): 47.70% and 48.76%
Inhibition (%) Her2 (HER2; 1 µM, individual Data 1-3): 68.30% and 69.5%
Inhibition (%) Her2 (HER2; 10 µM, individual Data 1-3): 86.89% and 87.78%
Inhibition (%) Her2 (HER2; 100 µM, individual Data 1-3): 95.7% and 96.9%
inhibition at 0.1 µM (HER2; read-out: Inhibition % at 0.1 µM HER2, 0.1 µM, the data between the highest and lowest values): 48%
inhibition at 0.01 µM (HER2; read-out: Inhibition (%) Her2, 0.01 µM, individual Data 1-3): 25.6%
inhibition at 0.1 µM (HER2; read-out: Inhibition (%) Her2, 0.1 µM, individual Data 1-3): 48%
inhibition at 1 µM (HER2; read-out: Inhibition (%) Her2, 1 µM, individual Data 1-3): 68.9%
inhibition at 10 µM (HER2; read-out: Inhibition (%) Her2, 10 µM, individual Data 1-3): 87.3%
inhibition at 100 µM (HER2; read-out: Inhibition (%) Her2, 100 µM, individual Data 1-3): 96.2%
IC50 (CDK2): ~0.17 µM
Inhibition (%) CDK2 (CDK2; 0.01 µM, individual Data 1-3): 24.8% and 25.2%
Inhibition (%) CDK2 (CDK2; 0.1 µM, individual Data 1-3): 41.7% and 42.2%
Inhibition (%) CDK2 (CDK2; 1 µM, individual Data 1-3): 70.9% and 71.2%
Inhibition (%) CDK2 (CDK2; 10 µM, individual Data 1-3): 87.8% and 88.3%
Inhibition (%) CDK2 (CDK2; 100 µM, individual Data 1-3): 96% and 96.6%
inhibition at 0.1 µM (CDK2; read-out: Inhibition % at 0.1 µM CDK2, 0.1 µM, the data between the highest and lowest values): 41.9%
inhibition at 0.01 µM (CDK2; read-out: Inhibition (%) CDK2, 0.01 µM, individual Data 1-3): 25.1%
inhibition at 0.1 µM (CDK2; read-out: Inhibition (%) CDK2, 0.1 µM, individual Data 1-3): 41.9%
inhibition at 1 µM (CDK2; read-out: Inhibition (%) CDK2, 1 µM, individual Data 1-3): 71.1%
inhibition at 10 µM (CDK2; read-out: Inhibition (%) CDK2, 10 µM, individual Data 1-3): 88.1%
inhibition at 100 µM (CDK2; read-out: Inhibition (%) CDK2, 100 µM, individual Data 1-3): 96.3%
IC50 (VEGFR-2): 0.287 ± 0.01 µM
Inhibition (%) VEGFR2 (VEGFR-2; 0.01 µM, individual Data 1-3): 16.9%
Inhibition (%) VEGFR2 (VEGFR-2; 0.1 µM, individual Data 1-3): 38.9% and 39.1%
Inhibition (%) VEGFR2 (VEGFR-2; 1 µM, individual Data 1-3): 66.7% and 66.4%
Inhibition (%) VEGFR2 (VEGFR-2; 10 µM, individual Data 1-3): 87.1% and 87.6%
Inhibition (%) VEGFR2 (VEGFR-2; 100 µM, individual Data 1-3): 95.4% and 95.9%
inhibition at 0.01 µM (VEGFR-2; read-out: Inhibition (%) VEGFR2, 0.01 µM, individual Data 1-3): 17%
inhibition at 0.1 µM (VEGFR-2; read-out: Inhibition (%) VEGFR2, 0.1 µM, individual Data 1-3): 39%
inhibition at 1 µM (VEGFR-2; read-out: Inhibition (%) VEGFR2, 1 µM, individual Data 1-3): 66.8%
inhibition at 10 µM (VEGFR-2; read-out: Inhibition (%) VEGFR2, 10 µM, individual Data 1-3): 87.3%
inhibition at 100 µM (VEGFR-2; read-out: Inhibition (%) VEGFR2, 100 µM, individual Data 1-3): 95.7%
